# Experimental data published in ChEMBL document CHEMBL3785008, “Piperine in food: interference in the pharmacokinetics of phenytoin” (Eur J Drug Metab Pharmacokinet, 2001).
# Tests used:
# Homo sapiens [1] = test: Drug absorption in healthy adult human subjects at 300 mg, po by HPLC method; format: ADME, organism-based; conditions: in vivo
# [2] = Tmax in healthy adult human subjects at 300 mg, po by HPLC method; format: ADME, organism-based; conditions: in vivo
# [3] = Cmax in healthy adult human subjects at 300 mg, po by HPLC method; format: ADME, organism-based; design: dose 300 mg, route oral; conditions: in vivo
# [4] = Tmax in healthy adult human subjects at 300 mg, po dosed 30 minutes after ingestion of soup (melahu rasam) with black pepper by HPLC method; format: ADME, organism-based; conditions: in vivo
# Homo sapiens [5] = test: Drug lag time in healthy adult human subjects at 300 mg, po dosed 30 minutes after ingestion of soup (melahu rasam) with black pepper by HPLC method; format: ADME, organism-based; conditions: in vivo, 0.5 h
# Homo sapiens [6] = test: Volume of distribution in healthy adult human subjects at 300 mg, po dosed 30 minutes after ingestion of soup (melahu rasam) with black pepper by HPLC method; format: ADME, organism-based; conditions: in vivo, 0.5 h
# Homo sapiens [7] = test: Drug absorption in healthy adult human subjects at 300 mg, po dosed 30 minutes after ingestion of soup (melahu rasam) with black pepper by HPLC method; format: ADME, organism-based; conditions: in vivo, 0.5 h
# Homo sapiens [8] = test: Drug lag time in healthy adult human subjects at 300 mg, po by HPLC method; format: ADME, organism-based; conditions: in vivo
# [9] = AUC (0 to 10 hrs) in 0.6 mg, po piperine pre-treated Swiss albino mouse at 10 mg, po by HPLC method; format: ADME, organism-based; design: dose 0.6 mg, time < 10 hr, route oral; conditions: in vivo
# Homo sapiens [10] = test: Volume of distribution in healthy adult human subjects at 300 mg, po by HPLC method; format: ADME, organism-based; conditions: in vivo
# [11] = Elimination half life in healthy adult human subjects at 300 mg, po by HPLC method; format: ADME, organism-based; conditions: in vivo, read-out: beta t1/2 (converted)
# [12] = Mean residence time in healthy adult human subjects at 300 mg, po dosed 30 minutes after ingestion of soup (melahu rasam) with black pepper by HPLC method; format: ADME, organism-based; conditions: in vivo
# [13] = Cmax in healthy adult human subjects at 300 mg, po dosed 30 minutes after ingestion of soup (melahu rasam) with black pepper by HPLC method; format: ADME, organism-based; design: dose 300 mg, route oral; conditions: in vivo
# Mus musculus = test: Ratio of drug level in 0.6 mg, po piperine pre-treated Swiss albino mouse at 10 mg, po to drug level in normal Swiss albino mouse at 10 mg, po; format: ADME, organism-based; conditions: in vivo
# [14] = Clearance in healthy adult human subjects at 300 mg, po dosed 30 minutes after ingestion of soup (melahu rasam) with black pepper by HPLC method; format: ADME, organism-based; conditions: in vivo
# [15] = AUC (0 to 10 hrs) in normal Swiss albino mouse at 10 mg, po by HPLC method; format: ADME, organism-based; design: time < 10 hr, dose 10 mg, route oral; conditions: in vivo
# [16] = AUC (0 to 48 hrs) in healthy adult human subjects at 300 mg, po dosed 30 minutes after ingestion of soup (melahu rasam) with black pepper by HPLC method; format: ADME, organism-based; design: time < 48 hr, dose 300 mg, route oral; conditions: in vivo
# [17] = Mean residence time in healthy adult human subjects at 300 mg, po by HPLC method; format: ADME, organism-based; conditions: in vivo
# [18] = Elimination half life in healthy adult human subjects at 300 mg, po dosed 30 minutes after ingestion of soup (melahu rasam) with black pepper by HPLC method; format: ADME, organism-based; conditions: in vivo, read-out: beta t1/2 (converted)
# [19] = AUC (0 to infinity) in healthy adult human subjects at 300 mg, po by HPLC method; format: ADME, organism-based; design: dose 300 mg, route oral, time infinity; conditions: in vivo
# [20] = Clearance in healthy adult human subjects at 300 mg, po by HPLC method; format: ADME, organism-based; conditions: in vivo
# [21] = AUC (0 to 48 hrs) in healthy adult human subjects at 300 mg, po by HPLC method; format: ADME, organism-based; design: time < 48 hr, dose 300 mg, route oral; conditions: in vivo
# [22] = AUC (0 to infinity) in healthy adult human subjects at 300 mg, po dosed 30 minutes after ingestion of soup (melahu rasam) with black pepper by HPLC method; format: ADME, organism-based; design: dose 300 mg, time infinity, route oral; conditions: in vivo
# [23] = Drug excretion in human urine assessed as hydroxyphenylphenylhydantoin and glucuronide conjugate level; format: ADME, tissue-based
# [24] = Drug elimination rate constant in healthy adult human subjects after consumption of 44 mg equivalent of piperine in form of pepper in soup (melahu rasam) by HPLC method; format: ADME, organism-based; conditions: in vivo, po
# [25] = AUC (0 to infinity) in healthy adult human subjects after consumption of 44 mg equivalent of piperine in form of pepper in soup (melahu rasam) by HPLC method; format: ADME, organism-based; design: dose 44 mg, time infinity; conditions: in vivo, po
# [26] = Cmax in Swiss albino mouse serum at 0.3 mg, po by HPLC method; format: ADME, organism-based; design: dose 0.3 mg, route oral
# Homo sapiens [27] = species on record: Homo sapiens; test: Drug absorption rate constant in healthy adult human subjects after consumption of 44 mg equivalent of piperine in form of pepper in soup (melahu rasam) by HPLC method; format: ADME, organism-based; conditions: in vivo, po
# [28] = Tmax in Swiss albino mouse serum at 0.3 mg, po by HPLC method; format: ADME, organism-based
# [29] = Cmax in healthy adult human subjects after consumption of 44 mg equivalent of piperine in form of pepper in soup (melahu rasam) by HPLC method; format: ADME, organism-based; design: dose 44 mg; conditions: in vivo, po
# [30] = AUC (0 to 12.5 hrs) in healthy adult human subjects after consumption of 44 mg equivalent of piperine in form of pepper in soup (melahu rasam) by HPLC method; format: ADME, organism-based; design: dose 44 mg, time < 12.5 hr; conditions: in vivo, po
# [31] = Tmax in healthy adult human subjects after consumption of 44 mg equivalent of piperine in form of pepper in soup (melahu rasam) by HPLC method; format: ADME, organism-based; conditions: in vivo, po
smiles,measurement,setting,value
O=C1N=C([O-])NC1(c1ccccc1)c1ccccc1.[Na+] [PHENYTOIN SODIUM],ka,Homo sapiens [1],0.666 h⁻¹
same,Tmax,[2],5.32 h
same,Cmax,[3],3820 ng/mL
same,Tmax,[4],3.38 h
same,Tlag,Homo sapiens [5],0.168 h
same,Vd,Homo sapiens [6],64.58 L
same,ka,Homo sapiens [7],1.177 h⁻¹
same,Tlag,Homo sapiens [8],0.655 h
same,AUC(0-t) at 10 h,[9],891 µg·h/mL
same,Vd,Homo sapiens [10],65.02 L
same,half-life,[11],22.5 h
same,MRT,[12],70.9 h
same,Cmax,[13],4310 ng/mL
same,Ratio,Mus musculus,1.8
same,CL/F,[14],15.9 mL/min
same,AUC(0-t) at 10 h,[15],716 µg·h/mL
same,AUC(0-t) at 48 h,[16],153 µg·h/mL
same,MRT,[17],34.2 h
same,half-life,[18],49.7 h
same,AUC(0-inf),[19],143 µg·h/mL
same,CL/F,[20],41.3 mL/min
same,AUC(0-t) at 48 h,[21],102 µg·h/mL
same,AUC(0-inf),[22],332 µg·h/mL
O=C1NC(=O)C(c2ccccc2)(c2ccccc2)N1 [PHENYTOIN],Drug excretion,[23],60%
O=C(/C=C/C=C/c1ccc2c(c1)OCO2)N1CCCCC1 [PIPERINE],k el,[24],2.22e-05 s⁻¹
same,AUC(0-inf),[25],5.3 µg·h/mL
same,Cmax,[26],5470 ng/mL
same,ka,Homo sapiens [27],1.41 h⁻¹
same,Tmax,[28],6 h
same,Cmax,[29],400 ng/mL
same,AUC(0-t) at 12.5 h,[30],3.37 µg·h/mL
same,Tmax,[31],2.5 h
